Assay [1] deals with T1, Mouse urotensin (mUR2) (Mus musculus, UniProt Q8VIH9).
T1 construct: purchased Perkin Elmer Biosignal
T1 sequence (Q8VIH9 1-385): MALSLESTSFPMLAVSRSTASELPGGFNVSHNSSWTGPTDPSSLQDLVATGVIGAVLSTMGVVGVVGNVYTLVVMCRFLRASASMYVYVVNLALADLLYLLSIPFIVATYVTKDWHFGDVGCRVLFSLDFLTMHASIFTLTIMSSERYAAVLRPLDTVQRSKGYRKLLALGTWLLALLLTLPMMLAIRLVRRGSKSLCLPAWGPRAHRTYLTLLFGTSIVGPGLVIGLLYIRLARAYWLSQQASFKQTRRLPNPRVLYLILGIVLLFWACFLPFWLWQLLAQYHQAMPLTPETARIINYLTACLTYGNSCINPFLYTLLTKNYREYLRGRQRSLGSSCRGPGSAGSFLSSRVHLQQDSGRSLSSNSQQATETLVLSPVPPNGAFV
Description: Radioligand binding, mouse urotensin mUR2 membranes, FlashPlate, [125I]-Urotensin II. Particulars: compound at 10 μM; [125I]-Urotensin II, mouse mUR2 membranes. The procedure, abridged:
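Cloned mouse urotensin (mUR2) receptor membranes from Perkin Elmer Biosignal were immobilized in FlashPlate microplates using a proprietary coating. Each well got 19.5 μl buffer, then 0.5 μl of DMSO, reference ligand, or compound. Adding 5 μl of [125I]-Urotensin II, diluted to 5× final concentration in binding buffer, started binding. Plates were sealed with TopSeal-A and incubated 1 hour at room temperature in the dark. Wells were counted for 30 seconds each on a TopCount after a 60-second delay, and percentage inhibition was calculated.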

The target of assay [2] is T2, Human melanin-concentrating hormone (MCH1) (Homo sapiens, UniProt Q99705).
T2 construct: purchased Perkin Elmer Biosignal
Description: Radioligand binding, human melanin-concentrating hormone MCH1 membranes, FlashPlate, [125I]-S36057. The following applies: compound at 10 μM, [125I]-S36057, human MCH1 membranes. In outline:
(§1)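 Cloned human receptor membranes were coated onto FlashPlate wells and incubated with radioligand and compound (added from a 0.5 mM DMSO daughter plate) for 1 hour at room temperature in the dark. Scintillation counting gave percent inhibition, with DMSO defining total and reference ligand defining non-specific binding.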

In assay [3] the target is T3, Human μ-opioid (MOP) (Homo sapiens, UniProt P35372).
T3 construct: purchased Perkin Elmer Biosignal
Description: Radioligand binding, human μ-opioid (MOP) membranes, FlashPlate, [3H]-Naloxone. The following applies: compound at 10 μM, [3H]-Naloxone, human MOP membranes. The procedure, abridged: as §1

Assay [4] addresses T4, Human Melanocortin (MC3) (Homo sapiens, UniProt P41968).
T4 construct: purchased Perkin Elmer Biosignal
Nature of the assay: Radioligand binding, human melanocortin MC3 membranes, FlashPlate, [125I]-NDP-αMSH. The following applies: compound at 10 μM, [125I]-NDP-αMSH, human MC3 membranes. The procedure, abridged: as §1

Assay [5] concerns the target T5, Human Melanocortin (MC4) (Homo sapiens, UniProt P32245).
T5 construct: purchased Perkin Elmer Biosignal
Description: Radioligand binding, human melanocortin MC4 membranes, FlashPlate, [125I]-NDP-αMSH. Particulars: compound at 10 μM; [125I]-NDP-αMSH, human MC4 membranes; 10 µM. In outline: as §1

The target in assay [6] is T6, Human melanocortin (MC5) (Homo sapiens, UniProt P33032).
T6 construct: purchased Perkin Elmer Biosignal
Nature of the assay: Radioligand binding, human melanocortin MC5 membranes, FlashPlate, [125I]-NDP-αMSH. The following applies: compound at 10 μM; [125I]-NDP-αMSH, human MC5 membranes. The procedure, abridged:
as §1

In assay [7] the target is T7, Human opioid (ORL1) (Homo sapiens, UniProt P41146).
T7 construct: purchased Perkin Elmer Biosignal
Nature of the assay: Radioligand binding, human opioid ORL1 membranes, FlashPlate, [125I]-Nociceptin. The following applies: compound at 10 μM, [125I]-Nociceptin, human ORL1 membranes. In outline:
as §1

In assay [8] the target is T8, Human neuropeptide Y (NPY-Y1) (Homo sapiens, UniProt P25929).
T8 construct: purchased Perkin Elmer Biosignal
T8 sequence (P25929 1-384): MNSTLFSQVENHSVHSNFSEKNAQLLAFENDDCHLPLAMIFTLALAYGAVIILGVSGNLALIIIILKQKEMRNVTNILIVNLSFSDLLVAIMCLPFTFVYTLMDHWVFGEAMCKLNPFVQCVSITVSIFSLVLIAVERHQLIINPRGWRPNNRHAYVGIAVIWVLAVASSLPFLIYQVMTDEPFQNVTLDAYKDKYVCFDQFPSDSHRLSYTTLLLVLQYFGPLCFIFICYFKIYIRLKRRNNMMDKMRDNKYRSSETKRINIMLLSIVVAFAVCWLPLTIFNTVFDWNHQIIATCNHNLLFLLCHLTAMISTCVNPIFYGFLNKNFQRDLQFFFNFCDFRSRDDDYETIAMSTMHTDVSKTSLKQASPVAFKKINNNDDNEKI
Nature of the assay: Radioligand binding, human neuropeptide Y NPY-Y1 membranes, FlashPlate, [125I]-PYY. Particulars: compound at 10 μM; [125I]-PYY, human NPY-Y1 membranes. The procedure, abridged:
as §1

The target in assay [9] is T9, Human κ-Opioid (KOP) (Homo sapiens, UniProt P41145).
T9 construct: purchased Perkin Elmer Biosignal
Nature of the assay: Radioligand binding, human κ-opioid (KOP) membranes, filtration, [3H]-Diprenorphine. The following applies: compound at 10 μM; [3H]-Diprenorphine, human KOP membranes. In outline: (§2)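 Membranes from cloned human receptors were incubated with compound and radioligand for 1 hour at room temperature. Bound ligand was collected on 0.3% PEI-soaked filters, washed with cold 50 mM Tris-HCl pH 7.4, and counted by scintillation. Percent inhibition was computed against DMSO totals and reference-ligand nonspecific wells.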

In assay [10] the target is T10, Human δ-opioid (DOP) (Homo sapiens, UniProt P41143).
T10 construct: purchased Perkin Elmer Biosignal
Nature of the assay: Radioligand binding, human δ-opioid (DOP) membranes, FlashPlate, [3H]-Bremazocine. The following applies: compound at 10 μM; [3H]-Bremazocine, human DOP membranes. In outline:
as §1

Assay [11] deals with T11, Human neurokinin (NK1) (Homo sapiens, UniProt P25103).
T11 construct: purchased Perkin Elmer Biosignal
Description: Radioligand binding, human neurokinin NK1 membranes, filtration, [125I]-Substance P. The following applies: compound at 10 μM; [125I]-Substance P, human NK1 membranes. In outline:
as §2

T11 sequence (P25103 whole entry): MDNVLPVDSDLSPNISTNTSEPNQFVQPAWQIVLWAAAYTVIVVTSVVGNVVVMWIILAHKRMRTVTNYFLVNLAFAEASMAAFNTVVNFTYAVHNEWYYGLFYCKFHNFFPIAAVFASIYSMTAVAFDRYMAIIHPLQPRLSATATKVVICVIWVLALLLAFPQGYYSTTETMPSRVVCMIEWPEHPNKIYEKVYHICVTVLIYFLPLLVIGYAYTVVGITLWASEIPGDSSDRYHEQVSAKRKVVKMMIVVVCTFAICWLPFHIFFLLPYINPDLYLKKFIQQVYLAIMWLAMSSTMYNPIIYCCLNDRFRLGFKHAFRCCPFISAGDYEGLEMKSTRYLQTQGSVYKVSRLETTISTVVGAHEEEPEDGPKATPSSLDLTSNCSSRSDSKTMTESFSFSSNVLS
T5 sequence (P32245 whole entry): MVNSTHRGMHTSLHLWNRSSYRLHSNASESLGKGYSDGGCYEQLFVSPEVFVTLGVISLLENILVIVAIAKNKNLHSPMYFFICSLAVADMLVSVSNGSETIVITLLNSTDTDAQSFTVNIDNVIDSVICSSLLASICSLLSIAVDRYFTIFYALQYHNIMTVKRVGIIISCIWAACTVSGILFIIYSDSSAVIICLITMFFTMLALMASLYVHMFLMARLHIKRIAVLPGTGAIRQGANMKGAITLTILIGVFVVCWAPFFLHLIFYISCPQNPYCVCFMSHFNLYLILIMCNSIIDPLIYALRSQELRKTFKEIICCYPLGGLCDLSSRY
T2 sequence (Q99705 whole entry): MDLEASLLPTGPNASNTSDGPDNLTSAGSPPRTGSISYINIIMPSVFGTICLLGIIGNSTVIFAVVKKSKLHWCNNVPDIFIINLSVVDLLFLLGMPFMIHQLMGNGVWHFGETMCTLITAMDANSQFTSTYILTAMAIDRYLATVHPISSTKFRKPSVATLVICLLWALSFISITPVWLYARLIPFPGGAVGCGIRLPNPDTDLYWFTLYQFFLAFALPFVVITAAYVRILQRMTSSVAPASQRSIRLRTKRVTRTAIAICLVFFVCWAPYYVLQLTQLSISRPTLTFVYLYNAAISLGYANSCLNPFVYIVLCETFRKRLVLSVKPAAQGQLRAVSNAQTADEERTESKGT
T7 sequence (P41146 whole entry): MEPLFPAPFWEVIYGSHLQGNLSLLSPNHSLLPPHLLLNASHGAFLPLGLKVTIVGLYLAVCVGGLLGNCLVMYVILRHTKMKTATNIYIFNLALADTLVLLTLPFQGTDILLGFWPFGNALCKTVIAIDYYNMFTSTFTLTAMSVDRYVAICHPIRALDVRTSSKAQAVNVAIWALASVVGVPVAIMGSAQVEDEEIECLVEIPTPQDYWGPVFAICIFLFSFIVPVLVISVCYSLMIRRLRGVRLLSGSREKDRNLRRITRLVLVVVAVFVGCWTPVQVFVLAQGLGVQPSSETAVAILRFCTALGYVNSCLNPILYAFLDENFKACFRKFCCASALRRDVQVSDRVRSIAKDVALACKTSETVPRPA
T6 sequence (P33032 whole entry): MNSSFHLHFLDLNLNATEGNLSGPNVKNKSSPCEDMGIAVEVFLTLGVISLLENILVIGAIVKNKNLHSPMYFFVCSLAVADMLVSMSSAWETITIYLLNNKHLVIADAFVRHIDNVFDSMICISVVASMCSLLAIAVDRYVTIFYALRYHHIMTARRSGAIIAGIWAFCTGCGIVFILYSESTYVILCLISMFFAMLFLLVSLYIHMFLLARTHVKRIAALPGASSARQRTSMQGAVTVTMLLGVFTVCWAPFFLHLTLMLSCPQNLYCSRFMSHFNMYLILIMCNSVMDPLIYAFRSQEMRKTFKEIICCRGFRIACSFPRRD
T4 sequence (P41968 whole entry): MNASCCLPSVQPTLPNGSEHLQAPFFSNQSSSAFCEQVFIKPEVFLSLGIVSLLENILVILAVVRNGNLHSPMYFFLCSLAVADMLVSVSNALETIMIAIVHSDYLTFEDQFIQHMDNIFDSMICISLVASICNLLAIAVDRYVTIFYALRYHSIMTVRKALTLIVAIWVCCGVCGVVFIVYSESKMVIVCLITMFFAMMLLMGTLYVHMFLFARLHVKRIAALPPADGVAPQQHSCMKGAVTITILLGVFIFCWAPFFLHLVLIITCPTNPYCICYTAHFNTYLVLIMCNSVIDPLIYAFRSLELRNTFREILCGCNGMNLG
T3 sequence (P35372 whole entry): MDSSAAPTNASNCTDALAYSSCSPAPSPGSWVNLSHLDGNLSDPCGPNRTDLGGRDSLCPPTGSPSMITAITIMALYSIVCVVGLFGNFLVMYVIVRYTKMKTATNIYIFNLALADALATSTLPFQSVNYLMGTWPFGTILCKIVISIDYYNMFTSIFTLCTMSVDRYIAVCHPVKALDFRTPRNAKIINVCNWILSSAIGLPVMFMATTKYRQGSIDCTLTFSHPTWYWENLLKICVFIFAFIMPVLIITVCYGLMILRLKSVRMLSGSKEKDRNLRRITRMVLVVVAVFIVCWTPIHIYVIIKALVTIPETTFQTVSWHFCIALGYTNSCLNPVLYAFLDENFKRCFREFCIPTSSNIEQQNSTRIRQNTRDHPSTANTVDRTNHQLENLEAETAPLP
T10 sequence (P41143 whole entry): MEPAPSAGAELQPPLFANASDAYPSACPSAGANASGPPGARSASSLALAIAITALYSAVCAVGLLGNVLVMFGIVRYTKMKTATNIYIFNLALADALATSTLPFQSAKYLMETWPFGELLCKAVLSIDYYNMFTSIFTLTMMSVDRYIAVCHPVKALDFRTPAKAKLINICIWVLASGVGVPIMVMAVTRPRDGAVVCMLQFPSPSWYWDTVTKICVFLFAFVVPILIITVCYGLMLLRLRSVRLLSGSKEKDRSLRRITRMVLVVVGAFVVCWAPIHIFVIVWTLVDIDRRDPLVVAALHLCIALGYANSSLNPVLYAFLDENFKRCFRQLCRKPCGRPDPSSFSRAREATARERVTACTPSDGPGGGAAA
T9 sequence (P41145 whole entry): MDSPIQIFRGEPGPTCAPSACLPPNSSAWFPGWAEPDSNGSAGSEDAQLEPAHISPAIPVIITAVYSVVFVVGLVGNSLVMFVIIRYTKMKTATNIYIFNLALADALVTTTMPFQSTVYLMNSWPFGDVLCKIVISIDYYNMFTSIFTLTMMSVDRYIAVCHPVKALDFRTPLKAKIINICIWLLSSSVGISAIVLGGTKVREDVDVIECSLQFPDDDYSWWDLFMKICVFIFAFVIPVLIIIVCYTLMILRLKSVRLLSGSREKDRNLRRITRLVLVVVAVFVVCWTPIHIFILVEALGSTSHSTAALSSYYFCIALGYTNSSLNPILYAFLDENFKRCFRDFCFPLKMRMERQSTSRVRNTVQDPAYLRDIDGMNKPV

For `NCCCC(=O)NC1C(OCc2ccc3ccccc3c2)OC(COCc2ccccc2)C(O)C1OCc1ccccc1` (single isomer, unassigned) [compound 467], in assay [1], the “A11: inhibition of radioligand binding” value is given as “− (“−” indicates less than 50% inhibition at 10 μM)”. The “A6: inhibition of radioligand binding” value in assay [2] is on record as “− (“−” indicates less than 50% inhibition at 10 μM)”. Further, the “A7: inhibition of radioligand binding” value in assay [3] (10 µM) was “− (“−” indicates less than 50% inhibition at 10 μM)”. Also, the “A3: inhibition of radioligand binding” value in assay [4] is on record as “− (“−” indicates less than 50% inhibition at 10 μM)”. In addition, the “A4: inhibition of radioligand binding” value in [5] is given as “− (“−” indicates less than 50% inhibition at 10 μM)”. The “A5: inhibition of radioligand binding” value in assay [6] is “− (“−” indicates less than 50% inhibition at 10 μM)”. Further, the “A10: inhibition of radioligand binding” value in assay [7] (10 µM) is on record as “− (“−” indicates less than 50% inhibition at 10 μM)”. Also, the “A9: inhibition of radioligand binding” value in assay [8] was “− (“−” indicates less than 50% inhibition at 10 μM)”. In [9], the “A2: inhibition of radioligand binding” value was “− (“−” indicates less than 50% inhibition at 10 μM)”. Also, the “A1: inhibition of radioligand binding” value in assay [10] is reported as “− (“−” indicates less than 50% inhibition at 10 μM)”. The “A8: inhibition of radioligand binding” value in assay [11] is on record as “+ (“+” indicates greater than 50% inhibition at 10 μM)”.

On to `NCCCC(=O)NC1C(OCc2ccc3ccccc3c2)OC(COCc2ccccc2)C(O)C1OCc1ccccc1` (single isomer, unassigned) [compound 468], for which the “A11: inhibition of radioligand binding” value in assay [1] is recorded as “− (“−” indicates less than 50% inhibition at 10 μM)”. The “A6: inhibition of radioligand binding” value in assay [2] is “− (“−” indicates less than 50% inhibition at 10 μM)”. Moreover, the “A7: inhibition of radioligand binding” value in [3] (10 µM) was “+ (“+” indicates greater than 50% inhibition at 10 μM)”. Further, the “A3: inhibition of radioligand binding” value in assay [4] is “− (“−” indicates less than 50% inhibition at 10 μM)”. The “A4: inhibition of radioligand binding” value in assay [5] is listed as “− (“−” indicates less than 50% inhibition at 10 μM)”. The “A5: inhibition of radioligand binding” value in [6] was “− (“−” indicates less than 50% inhibition at 10 μM)”. Besides, the “A10: inhibition of radioligand binding” value in assay [7] (10 µM) is reported as “+ (“+” indicates greater than 50% inhibition at 10 μM)”. In addition, the “A9: inhibition of radioligand binding” value in assay [8] is on record as “− (“−” indicates less than 50% inhibition at 10 μM)”. Moreover, the “A2: inhibition of radioligand binding” value in [9] is “− (“−” indicates less than 50% inhibition at 10 μM)”. The “A1: inhibition of radioligand binding” value in assay [10] is listed as “− (“−” indicates less than 50% inhibition at 10 μM)”. The “A8: inhibition of radioligand binding” value in assay [11] is “+ (“+” indicates greater than 50% inhibition at 10 μM)”.

Turning to `NCCCC(=O)NC1C(OCc2ccc3ccccc3c2)OC(COCc2ccc(Cl)cc2)C(O)C1OCc1ccccc1` (single isomer, unassigned) [compound 469], the “A11: inhibition of radioligand binding” value in assay [1] is recorded as “− (“−” indicates less than 50% inhibition at 10 μM)”. In addition, the “A6: inhibition of radioligand binding” value in assay [2] was “− (“−” indicates less than 50% inhibition at 10 μM)”. The “A7: inhibition of radioligand binding” value in assay [3] is reported as “− (“−” indicates less than 50% inhibition at 10 μM)”. For the same molecule, in assay [4] (10 µM), the “A3: inhibition of radioligand binding” value is “− (“−” indicates less than 50% inhibition at 10 μM)”. In addition, the “A4: inhibition of radioligand binding” value in [5] was “+ (“+” indicates greater than 50% inhibition at 10 μM)”. Further, in [6], the “A5: inhibition of radioligand binding” value is on record as “+ (“+” indicates greater than 50% inhibition at 10 μM)”. In assay [7] (10 µM), the “A10: inhibition of radioligand binding” value was “− (“−” indicates less than 50% inhibition at 10 μM)”. Also, the “A9: inhibition of radioligand binding” value in assay [8] is “− (“−” indicates less than 50% inhibition at 10 μM)”. Also, in [9], the “A2: inhibition of radioligand binding” value is reported as “− (“−” indicates less than 50% inhibition at 10 μM)”. The “A1: inhibition of radioligand binding” value in assay [10] is “− (“−” indicates less than 50% inhibition at 10 μM)”. The “A8: inhibition of radioligand binding” value in assay [11] was “+ (“+” indicates greater than 50% inhibition at 10 μM)”.

Consider `NCCCC(=O)NC1C(OCc2ccc3ccccc3c2)OC(COCc2ccc(Cl)cc2)C(O)C1OCc1ccccc1` (single isomer, unassigned) [compound 470], for which the “A11: inhibition of radioligand binding” value in assay [1] is “− (“−” indicates less than 50% inhibition at 10 μM)”. The “A6: inhibition of radioligand binding” value in [2] was “− (“−” indicates less than 50% inhibition at 10 μM)”. In addition, in assay [3], the “A7: inhibition of radioligand binding” value was “− (“−” indicates less than 50% inhibition at 10 μM)”. The “A3: inhibition of radioligand binding” value in assay [4] (10 µM) is “− (“−” indicates less than 50% inhibition at 10 μM)”. Also, the “A4: inhibition of radioligand binding” value in assay [5] is “− (“−” indicates less than 50% inhibition at 10 μM)”. Besides, the “A5: inhibition of radioligand binding” value in assay [6] is listed as “+ (“+” indicates greater than 50% inhibition at 10 μM)”. Further, the “A10: inhibition of radioligand binding” value in assay [7] (10 µM) is “+ (“+” indicates greater than 50% inhibition at 10 μM)”. Further, the “A9: inhibition of radioligand binding” value in assay [8] is “− (“−” indicates less than 50% inhibition at 10 μM)”. Moreover, the “A2: inhibition of radioligand binding” value in assay [9] was “− (“−” indicates less than 50% inhibition at 10 μM)”. In addition, in assay [10], the “A1: inhibition of radioligand binding” value is given as “− (“−” indicates less than 50% inhibition at 10 μM)”. In [11], the “A8: inhibition of radioligand binding” value is recorded as “+ (“+” indicates greater than 50% inhibition at 10 μM)”.

For `NCCC(=O)NC1C(OCc2ccc(Cl)cc2)OC(COCc2ccc3ccccc3c2)C(O)C1OCc1ccc(Cl)cc1` (single isomer, unassigned) [compound 471], in [1], the “A11: inhibition of radioligand binding” value was “− (“−” indicates less than 50% inhibition at 10 μM)”. For the same molecule, the “A6: inhibition of radioligand binding” value in assay [2] (10 µM) is “− (“−” indicates less than 50% inhibition at 10 μM)”. In assay [3], the “A7: inhibition of radioligand binding” value is “− (“−” indicates less than 50% inhibition at 10 μM)”. In addition, in assay [4], the “A3: inhibition of radioligand binding” value is “+ (“+” indicates greater than 50% inhibition at 10 μM)”. Besides, the “A4: inhibition of radioligand binding” value in assay [5] is given as “− (“−” indicates less than 50% inhibition at 10 μM)”. In addition, in assay [6], the “A5: inhibition of radioligand binding” value is on record as “+ (“+” indicates greater than 50% inhibition at 10 μM)”. Also, the “A10: inhibition of radioligand binding” value in assay [7] was “− (“−” indicates less than 50% inhibition at 10 μM)”. Besides, the “A9: inhibition of radioligand binding” value in assay [8] was “− (“−” indicates less than 50% inhibition at 10 μM)”. Besides, the “A2: inhibition of radioligand binding” value in assay [9] is recorded as “− (“−” indicates less than 50% inhibition at 10 μM)”. Besides, the “A1: inhibition of radioligand binding” value in assay [10] was “− (“−” indicates less than 50% inhibition at 10 μM)”. In [11], the “A8: inhibition of radioligand binding” value is “+ (“+” indicates greater than 50% inhibition at 10 μM)”.

(Values after patent US20080009418A1, “Selective Inhibitors” (Alchemia LTD., priority 2004, published 2008).)
